Where “and” joins values, the source holds several entries; their conditions need not be identical. Identical values can stand only once.
Experiments:
[1] = system: CTG repeat expansion in the 3′ UTR of human DMPK gene; experiment: DOUBLE-cut screening: CTG repeat excision by loss-of-signal ddPCR in primary DM1 patient myoblasts; format: cell-based; conditions: sgRNA pair RNP, mean of upstream and downstream ddPCR assays; for % of CTG repeat excision efficiency by ddPCR (DNA-PKi): 3 μM Compound 6 for 48 hrs; for % of CTG repeat excision efficiency by ddPCR (Vehicle): DMSO 48 hrs
In short: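 Paired upstream/downstream sgRNAs, each as RNP with recombinant SaCas9 (20 pmol protein:60 pmol sgRNA), mixed 1:1 and nucleofected into primary DM1 myoblasts; cells then given DMSO or 3 μM DNA-PKi Compound 6 for 48 hrs. Genomic DNA taken 72 hrs post-nucleofection; excision is mean of upstream and downstream loss-of-signal ddPCR, normalized to DMPK exon 1 reference.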

[2] = system: CUG RNA foci in primary DM1 patient myoblasts; experiment: DOUBLE-cut screening: FISH staining of RNA foci in primary DM1 patient myoblasts; format: cell-based, human; conditions: sgRNA pair RNP, 72 hrs post nucleofection; for % of CUG foci free nuclei (DNA-PKi): 3 μM Compound 6 for 48 hrs; for % of CUG foci free nuclei (Vehicle): DMSO 48 hrs
In short: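 Primary DM1 patient myoblasts nucleofected with paired upstream/downstream sgRNA–SaCas9 RNPs (20 pmol protein, 60 pmol sgRNA each), then treated 48 hrs with DMSO or 3 μM DNA-PK inhibitor. At 72 hrs post nucleofection, CUG foci stained by Cy3-PNA(CAG)5 FISH with MBNL1 co-staining and quantified by high-content confocal imaging.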

Substance | % of CTG repeat excision efficiency by ddPCR (DNA-PKi) [1] | % of CTG repeat excision efficiency by ddPCR (Vehicle) [1] | % of CUG foci free nuclei (DNA-PKi) [2] | % of CUG foci free nuclei (Vehicle) [2]
SaU3 + SaD13: SaCas9 sgRNA pair, SEQ ID NOs: 3 and 21 (guide 1 ACTCCGGGGCCCCGTTGGAAGA; guide 2 CCCAACAACCCCAATCCACGTT; listed as DNA, chemistry not fully specified) | 57.82% | 30.34% | 74.02% | 38.07%
SaU3 + SaD15: SaCas9 sgRNA pair, SEQ ID NOs: 3 and 23 (guide 1 ACTCCGGGGCCCCGTTGGAAGA; guide 2 GACAATAAATACCGAGGAATGT; listed as DNA, chemistry not fully specified) | 65.28% | 37.42% | 86.64% | 74.00%
SaU3 + SaD17: SaCas9 sgRNA pair, SEQ ID NOs: 3 and 25 (guide 1 ACTCCGGGGCCCCGTTGGAAGA; guide 2 TTTATTCGCGAGGGTCGGGGGT; listed as DNA, chemistry not fully specified) | 56.80% | 31.18% | 77.22% | 53.10%
SaU3 + SaD18: SaCas9 sgRNA pair, SEQ ID NOs: 3 and 26 (guide 1 ACTCCGGGGCCCCGTTGGAAGA; guide 2 GGGCCTTTTATTCGCGAGGGTC; listed as DNA, chemistry not fully specified) | 50.13% | 21.51% | 71.73% | 33.15%
SaU3 + SaD19: SaCas9 sgRNA pair, SEQ ID NOs: 3 and 27 (guide 1 ACTCCGGGGCCCCGTTGGAAGA; guide 2 AGGACCCCCACCCCCGACCCTC; listed as DNA, chemistry not fully specified) | 53.36% | 32.67% | 81.67% | 57.16%
SaU3 + SaD20: SaCas9 sgRNA pair, SEQ ID NOs: 3 and 28 (guide 1 ACTCCGGGGCCCCGTTGGAAGA; guide 2 AGATGGAGGGCCTTTTATTCGC; listed as DNA, chemistry not fully specified) | 64.44% | 40.12% | 83.99% | 72.56%
SaU4 + SaD3: SaCas9 sgRNA pair, SEQ ID NOs: 4 and 11 (guide 1 CCAGTTCACAACCGCTCCGAGC; guide 2 CAACGATAGGTGGGGGTGCGTG; listed as DNA, chemistry not fully specified) | 56.38% | 44.46% | 80.39% | 60.98%
SaU4 + SaD6: SaCas9 sgRNA pair, SEQ ID NOs: 4 and 14 (guide 1 CCAGTTCACAACCGCTCCGAGC; guide 2 CTTTTGCCAAACCCGCTTTTTC; listed as DNA, chemistry not fully specified) | 48.99% | 28.23% | 67.36% | 37.76%
SaU4 + SaD7: SaCas9 sgRNA pair, SEQ ID NOs: 4 and 15 (guide 1 CCAGTTCACAACCGCTCCGAGC; guide 2 GGGGCGCGGGATCCCCGAAAAA; listed as DNA, chemistry not fully specified) | 55.59% | 39.17% | 78.79% | 58.50%
SaU4 + SaD11: SaCas9 sgRNA pair, SEQ ID NOs: 4 and 19 (guide 1 CCAGTTCACAACCGCTCCGAGC; guide 2 CAAAACGTGGATTGGGGTTGTT; listed as DNA, chemistry not fully specified) | 54.55% | 36.98% | 78.29% | 58.71%
SaU4 + SaD12: SaCas9 sgRNA pair, SEQ ID NOs: 4 and 20 (guide 1 CCAGTTCACAACCGCTCCGAGC; guide 2 TCAGTGCATCCAAAACGTGGAT; listed as DNA, chemistry not fully specified) | 59.06% | 42.13% | 87.22% | 82.10%
SaU4 + SaD13: SaCas9 sgRNA pair, SEQ ID NOs: 4 and 21 (guide 1 CCAGTTCACAACCGCTCCGAGC; guide 2 CCCAACAACCCCAATCCACGTT; listed as DNA, chemistry not fully specified) | 54.46% | 32.38% | 73.71% | 43.83%
SaU4 + SaD15: SaCas9 sgRNA pair, SEQ ID NOs: 4 and 23 (guide 1 CCAGTTCACAACCGCTCCGAGC; guide 2 GACAATAAATACCGAGGAATGT; listed as DNA, chemistry not fully specified) | 58.99% | 39.70% | 85.73% | 79.84%
SaU4 + SaD17: SaCas9 sgRNA pair, SEQ ID NOs: 4 and 25 (guide 1 CCAGTTCACAACCGCTCCGAGC; guide 2 TTTATTCGCGAGGGTCGGGGGT; listed as DNA, chemistry not fully specified) | 55.51% | 35.01% | 79.31% | 60.96%
SaU4 + SaD18: SaCas9 sgRNA pair, SEQ ID NOs: 4 and 26 (guide 1 CCAGTTCACAACCGCTCCGAGC; guide 2 GGGCCTTTTATTCGCGAGGGTC; listed as DNA, chemistry not fully specified) | 45.55% | 26.25% | 69.76% | 36.81%
SaU4 + SaD19: SaCas9 sgRNA pair, SEQ ID NOs: 4 and 27 (guide 1 CCAGTTCACAACCGCTCCGAGC; guide 2 AGGACCCCCACCCCCGACCCTC; listed as DNA, chemistry not fully specified) | 50.21% | 36.41% | 80.80% | 67.92%
SaU4 + SaD20: SaCas9 sgRNA pair, SEQ ID NOs: 4 and 28; printed twice in Table 4 (guide 1 CCAGTTCACAACCGCTCCGAGC; guide 2 AGATGGAGGGCCTTTTATTCGC; listed as DNA, chemistry not fully specified) | 65.25% and 59.19% | 53.12% and 52.49% | 84.77% and 83.56% | 59.76% and 81.47%
SaU7 + SaD4: SaCas9 sgRNA pair, SEQ ID NOs: 7 and 12 (guide 1 CGCGGCCGGCGAACGGGGCTCG; guide 2 ACTTTGCGAACCAACGATAGGT; listed as DNA, chemistry not fully specified) | 73.99% | 57.96% | 87.34% | 74.84%
SaU7 + SaD5: SaCas9 sgRNA pair, SEQ ID NOs: 7 and 13 (guide 1 CGCGGCCGGCGAACGGGGCTCG; guide 2 GGGTTTGGCAAAAGCAAATTTC; listed as DNA, chemistry not fully specified) | 69.71% | 50.76% | 82.27% | 64.24%
SaU7 + SaD6: SaCas9 sgRNA pair, SEQ ID NOs: 7 and 14 (guide 1 CGCGGCCGGCGAACGGGGCTCG; guide 2 CTTTTGCCAAACCCGCTTTTTC; listed as DNA, chemistry not fully specified) | 55.71% | 22.54% | 67.73% | 24.89%
SaU7 + SaD7: SaCas9 sgRNA pair, SEQ ID NOs: 7 and 15 (guide 1 CGCGGCCGGCGAACGGGGCTCG; guide 2 GGGGCGCGGGATCCCCGAAAAA; listed as DNA, chemistry not fully specified) | 64.88% | 32.55% | 85.03% | 41.68%
